The values below come from patent publication US9018238B2, “Inhibitor of casein kinase 1δ and casein kinase 1ε” (Pharmadesign, Inc., priority 2009, dated 2015).

Test [1] concerns the target T1, human recombinant casein kinase 1ε (Homo sapiens, UniProt P49674).
T1 construct: purchased INVITROGEN PV3500
In words: Casein kinase 1ε inhibition assay (Z'-LYTE Ser/Thr 11 Peptide). The format is biochemical. The conditions noted are these: 0.3 μg/ml compound, 0.5 μg/ml enzyme, 1.0 μM peptide, 20 μM ATP; 15 min pre-reaction, 2 hours; read-out: Casein kinase 1ε inhibitory rate. The method, then:
The activity of the present compound to inhibit casein kinase 1δ and casein kinase 1ε was measured using human recombinant casein kinase 1δ (INVITROGEN; Cat No. PV3665) or casein kinase 1ε (INVITROGEN; Cat No. PV3500) as an enzyme source, and using Z′-LYTE Ser/Thr 11 Peptide (INVITROGEN; Cat No. PV3671) as a phosphorylation substrate. The compositions (final concentrations) applied during the inhibitory activity measurement assays are as follows. […]
(§1) The present compound had previously been reacted with the enzyme at room temperature for 15 minutes. Two hours after completion of the reaction, the remaining phosphorylation activity was measured using Z′-LYTE Kinase Assay Kit-Ser/Thr 11 Peptide (INVITROGEN; Cat No. PV3670).
(§2) The inhibitory rate of the present compound was calculated with respect to the phosphorylation activity of each of casein kinase 1δ and casein kinase 1ε in a case in which no such compounds were added. Tables 1 to 4 show the inhibitory rate (%) of each compound.

The target of test [2] is T2, human recombinant casein kinase 1δ (Homo sapiens, UniProt P48730).
T2 construct: purchased INVITROGEN PV3665
T2 sequence (P48730 whole entry): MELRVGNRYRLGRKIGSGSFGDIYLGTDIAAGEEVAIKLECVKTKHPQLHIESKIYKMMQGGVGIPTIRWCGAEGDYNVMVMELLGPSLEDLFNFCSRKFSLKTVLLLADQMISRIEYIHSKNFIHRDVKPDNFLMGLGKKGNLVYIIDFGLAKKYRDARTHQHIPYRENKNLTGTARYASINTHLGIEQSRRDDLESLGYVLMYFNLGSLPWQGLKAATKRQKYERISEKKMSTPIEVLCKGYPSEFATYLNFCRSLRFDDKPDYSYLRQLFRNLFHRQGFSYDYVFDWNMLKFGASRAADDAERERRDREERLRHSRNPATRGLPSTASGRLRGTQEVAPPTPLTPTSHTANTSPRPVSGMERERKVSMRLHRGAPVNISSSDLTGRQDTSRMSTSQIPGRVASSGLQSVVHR
In words: Casein kinase 1δ inhibition assay (Z'-LYTE Ser/Thr 11 Peptide). The format is biochemical. The conditions noted are these: 0.3 μg/ml compound, 3.0 μg/ml enzyme, 1.0 μM peptide, 20 μM ATP; 15 min pre-reaction, 2 hours; read-out: Casein kinase 1δ inhibitory rate. The method, then:
The activity of the present compound to inhibit casein kinase 1δ and casein kinase 1ε was measured using human recombinant casein kinase 1δ (INVITROGEN; Cat No. PV3665) or casein kinase 1ε (INVITROGEN; Cat No. PV3500) as an enzyme source, and using Z′-LYTE Ser/Thr 11 Peptide (INVITROGEN; Cat No. PV3671) as a phosphorylation substrate. The compositions (final concentrations) applied during the inhibitory activity measurement assays are as follows.
Assay of Casein Kinase 1δ
3.0 μg/ml casein kinase 1δ, 0.3 μg/ml the present compound, 1.0 μM peptide, 20 μM ATP, 50 mM HEPES (pH 7.4), 10 mM MgCl2, 0.01% Brij-35, and 0.5% DMSO
as §1, §2

Test [3] concerns rats. The conditions noted are these: subcutaneous administration; cited from earlier work.
The test system of test [4] is human pancreatic cancer cell line transplanted into the subcutis of a mouse. The conditions noted are these: cited from earlier work.
Test [5] relates to human pancreatic cancer cell line. Conditions: human pancreatic cancer cell line in vitro; cited from earlier work.
Test [6] concerns N2A cells (N2A-APP695 cells). Conditions: N2A-APP695 cells excessively expressing constitutively active casein kinase 1ε; cited from earlier work.

T1 sequence (P49674 whole entry): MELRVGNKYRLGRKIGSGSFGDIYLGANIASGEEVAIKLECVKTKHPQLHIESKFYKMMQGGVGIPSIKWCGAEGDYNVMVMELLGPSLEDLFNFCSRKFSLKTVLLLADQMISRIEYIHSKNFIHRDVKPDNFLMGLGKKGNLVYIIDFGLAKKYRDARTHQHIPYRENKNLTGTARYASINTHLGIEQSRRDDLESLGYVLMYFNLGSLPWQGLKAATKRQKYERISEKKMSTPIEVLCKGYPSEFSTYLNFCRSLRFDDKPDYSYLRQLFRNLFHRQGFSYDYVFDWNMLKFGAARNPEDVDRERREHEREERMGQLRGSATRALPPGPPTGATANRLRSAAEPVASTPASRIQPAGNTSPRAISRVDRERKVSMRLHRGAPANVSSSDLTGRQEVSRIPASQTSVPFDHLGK

Regarding `O=C1OC(/C=C/c2ccccc2)=NC/1=C\c1cccnc1` [2-(2-phenylethenyl)-4-(3-pyridinylmethylene)-5(4H)-oxazolone], the inhibition at 0.3 µg/mL in test [1] was 83.4%; in test [2], 85%.

In the case of `Cn1cnc(/C=C2\N=C(c3cccs3)OC2=O)c1` [Example 10, 4-((1-Methyl-1H-imidazol-yl)methylene)-2-(2-thienyl)-5(4H)-oxazolone], the inhibition at 0.3 µg/mL in test [1] was 18.1%; in test [2], 37%.

With `COc1cc(/C=C2\N=C(c3cccs3)OC2=O)ccn1` [Example 9, 4-((2-Methoxy-4-pyridinyl)methylene)-2-(2-thienyl)-5(4H)-oxazolone], the inhibition at 0.3 µg/mL in test [1] was 93.8%; in test [2], 60.5%.

On to `O=C1OC(c2cccs2)=N/C1=C\c1cc(Cl)c2c(c1)OCCO2` [4-((8-Chloro-2,3-dihydro-1,4-benzodioxin-6-yl)methylene)-2-(2-thienyl)-5(4H)-oxazolone], for which the values for the inhibition at 0.3 µg/mL in test [1] and in test [2] were 85.8% and 76.7%, respectively.

For the molecule `COc1ccc(/C=C2\N=C(c3cccs3)OC2=O)c(Cl)n1` [Example 19, 4-((2-Chloro-6-methoxy-3-pyridinyl)methylene)-2-(2-thienyl)-5(4H)-oxazolone], the inhibition at 0.3 µg/mL in test [1] was 52.5%; in test [2], 76.1%.

Regarding `Nc1nccc(-c2c(-c3ccc(F)cc3)ncn2C2CCCCC2)n1` [PF-670462, 4-[3-cyclohexyl-5-(4-fluoro-phenyl)-3H-imidazol-4-yl]-pyrimidin-2-ylamine], the “phase of circadian rhythm” value in test [3] is recorded as “significantly delayed”.

For `COc1ccc(C2=N/C(=C\c3cccnc3)C(=O)O2)cc1Br` [2-(3-Bromo-4-methoxyphenyl)-4-(3-pyridinylmethylene)-5-(4H)-oxazolone], the inhibition at 0.3 µg/mL in test [1] was 99.4%; in test [2], 94.2%.

In the case of `O=C1OC(c2cccs2)=N/C1=C\c1csnn1` [Example 14, 4-((1,2,3-Thiadiazol-4-yl)methylene)-2-(2-thienyl)-5(4H)-oxazolone], the inhibition at 0.3 µg/mL is 19.2% in test [1] and 32.2% in test [2].

As to `Nc1ccn([C@@H]2O[C@H](CO)[C@@H](O)C2(F)F)c(=O)n1` [gemcitabine], in test [4], the “growth of tumor cells” value is given as “significant effect of suppressing the growth of tumor cells”.

On to `O=C1OC(c2cccs2)=N/C1=C\c1ccc([N+](=O)[O-])c(Cl)c1` [4-((3-Chloro-4-nitrophenyl)methylene)-2-(2-thienyl)-5(4H)-oxazolone], for which the inhibition at 0.3 µg/mL turned out to be 97.6% in test [1] and 87.6% in test [2].

Consider `O=C1OC(c2cccs2)=N/C1=C\c1cc2c(cc1Cl)OCO2` [4-((6-Chloro-1,3-benzodioxol-5-yl)methylene)-2-(2-thienyl)-5(4R)-oxazolone], for which the inhibition at 0.3 µg/mL in test [1] worked out at 97%; in test [2] it was 74.3%.

On to `COc1ccc(/C=C2\N=C(c3cccs3)OC2=O)c(C)n1` [Example 18, 4-((6-Methoxy-2-methyl-3-pyridinyl)methylene)-2-(2-thienyl)-5(4H)-oxazolone], for which the results for the inhibition at 0.3 µg/mL in test [1] and in test [2] were 32.8% and 55.3%, respectively.

Turning to `COCc1ccc(/C=C2\N=C(c3cccs3)OC2=O)o1` [Example 12, 4-((5-Methoxymethyl-2-furanyl)methylene)-2-(2-thienyl)-5(4H)-oxazolone], the results for the inhibition at 0.3 µg/mL in test [1] and in test [2] were 9% and 29%, respectively.

In the case of `O=C1OC(c2cccs2)=N/C1=C\c1cncc(F)c1` [Example 3, 4-((5-Fluoro-3-pyridinyl)methylene)-2-(2-thienyl)-5(4H)-oxazolone], the inhibition at 0.3 µg/mL in test [1] turned out to be 92.1%; in test [2], 87.4%.

As for `Cc1cc(C2=N/C(=C\c3cccnc3)C(=O)O2)ccc1Br` [2-(4-Bromo-3-methylphenyl)-4-(3-pyridinylmethylene)-5(4H)-oxazolone], the figures for the inhibition at 0.3 µg/mL in test [1] and in test [2] were 97.8% and 83.2%, respectively.

With `O=C1OC(c2cccs2)=N/C1=C\c1cocn1` [Example 13, 4-((4-Oxazoyl)methylene)-2-(2-thienyl)-5(4H)-oxazolone], the inhibition at 0.3 µg/mL is 32% in test [1] and 67.9% in test [2].

Turning to `COc1ccc(/C=C2\N=C(c3cccs3)OC2=O)cn1` [Example 5, 4-((6-Methoxy-3-pyridinyl)methylene)-2-(2-thienyl)-5(4H)-oxazolone], the inhibition at 0.3 µg/mL in test [1] amounted to 95.6%; in test [2], 86.3%.

For the molecule `O=C1OC(c2cccs2)=N/C1=C\c1ccc([N+](=O)[O-])c(Br)c1` [4-((3-Bromo-4-nitrophenyl)methylene)-2-(2-thienyl)-5(4H)-oxazolone], the inhibition at 0.3 µg/mL in test [1] worked out at 94.4%; in test [2], 85.9%.

In the case of `COc1cncc(/C=C2\N=C(c3ccc(C)s3)OC2=O)c1` [Example 1, 4-((5-Methoxy-3-pyridinyl)methylene)-2-(5-methyl-2-thienyl)-5(4H)-oxazolone], the values for the inhibition at 0.3 µg/mL in test [1] and in test [2] were 97.1% and 82%, respectively.

Turning to `COc1ccc(/C=C2\N=C(c3cccs3)OC2=O)cc1` [4-((4-methoxyphenyl)methylene)-2-(2-thienyl)-5(4H)-oxazolone], the inhibition at 0.3 µg/mL came to 98.6% in test [1] and 96.1% in test [2].

With `COc1cncc(/C=C2\N=C(c3cccs3)OC2=O)c1` [Example 2, 4-((5-Methoxy-3-pyridinyl)methylene)-2-(2-thienyl)-5(4H)-oxazolone], the inhibition at 0.3 µg/mL worked out at 96.6% in test [1] and 91.1% in test [2].

As for `Cn1cc(/C=C2\N=C(c3cccs3)OC2=O)cn1` [4-((1-Methyl-1H-pyrazol-4-yl)methylene)-2-(2-thienyl)-5(4H)-oxazolone], the figures for the inhibition at 0.3 µg/mL in test [1] and in test [2] were 48.8% and 73.6%, respectively.

Take `COc1ccc(/C=C2\N=C(c3cccs3)OC2=O)cc1[N+](=O)[O-]` [4-((4-Methoxy-3-nitrophenyl)methylene)-2-(2-thienyl)-5(4H)-oxazolone]: the inhibition at 0.3 µg/mL in test [1] turned out to be 94.8%; in test [2], 91%.

In the case of `O=C1OC(c2cccs2)=N/C1=C\c1cccnc1F` [Example 4, 4-((2-Fluoro-3-pyridinyl)methylene)-2-(2-thienyl)-5(4H)-oxazolone], the inhibition at 0.3 µg/mL worked out at 39.2% in test [1] and 65.6% in test [2].

Consider `COC(=O)c1ccc(/C=C2\N=C(c3cccs3)OC2=O)cc1` [Methyl 4-((5-oxo-2-(2-thienyl)oxazol-4(5H)-ylidene)methyl) benzoate], for which the inhibition at 0.3 µg/mL in test [1] was 95.1%; in test [2], 86.8%.

For `COc1cc(OC)c(C=C2C(O)=Nc3ccccc32)c(OC)c1` [IC261], the cell growth result in test [5] is on record as “suppression of the cell growth was observed”. Moreover, in test [4], the “growth of tumor cells” value is given as “significant effect of suppressing the growth of tumor cells”. Besides, in test [6], the “amount of Aβ40” value is reported as “decreased” and the “amount of Aβ42” value was “decreased”.
